Laboratory results taken from patent US10195185B2, “3-(1H-imidazo[4,5-C]pyridin-2-yl)-1H-pyrazolo[4,3-B]pyridines and therapeutic uses thereof” (Samumed, LLC, priority 2015, dated 2019).

Experiments:
[1] = tested on: primary human mesenchymal stem cells (hMSCs); assay: Induction of chondrogenesis in hMSCs (nodule area, Rhodamine B / Nile Red); type: cell-based; settings: TGF-β3 as positive control; for Emax: read-out: Max. Activity as % TGF-β3 activity; for EC50: concentration required to induce 50% levels of chondrogenesis, read-out: Conc (nM) of 50% TGF-β3 activity
Summary of the method: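 Primary hMSCs (passage 3–6) in incomplete chondrogenic induction medium were treated 6 days at 37° C. with 1:3 dilutions (2700–10 nM in 96-well or 5000–2.2 nM in 384-well; 0.03% DMSO). Rhodamine B/Nile Red-stained nodule area was imaged, normalized to DMSO wells, and EC50 was set against TGF-β3 (10 ng/mL).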

[2] = tested on: IL-6 in human monocyte cell line (THP-1 cells); assay: IL-6 inhibition in LPS-stimulated THP-1 cells (HTRF); type: cell-based; settings: IL-6 in LPS-stimulated THP-1 cells; for EC50: HTRF; for inhibition at 10 µM: read-out: percent inhibition in brackets beside EC50 >10 μM
Summary of the method: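 THP-1 cells, serum-reduced (1% FBS) for 24 h, were preincubated with compound (10-point 1:3 series from 10 μM, 0.1% DMSO) for 2 h, then stimulated with 500 ng/mL LPS for 22 h at 37° C. IL-6 was read by HTRF (665/620 nm ratio) and normalized to DMSO. EC50 from four-parameter fit; % inhibition at 10 μM given if EC50 >10 μM.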

Cc1ccc(-c2nccc3[nH]c(-c4n[nH]c5ccc(-c6cncc(N)c6)nc45)nc23)s1 [Compound 395, 5-(3-(4-(5-Methylthiophen-2-yl)-1H-imidazo[4,5-c]pyridin-2-yl)-1H-pyrazolo[4,3-b]pyridin-5-yl)pyridin-3-amine]
Emax [1]: 73% | EC50 [1]: 10 nM | EC50 [2]: 0.142 µM

CN(C)Cc1cncc(-c2ccc3[nH]nc(-c4nc5c(-c6cccc(F)c6)nccc5[nH]4)c3n2)c1 [Compound 13, 1-(5-(3-(4-(3-Fluorophenyl)-1H-imidazo[4,5-c]pyridin-2-yl)-1H-pyrazolo [4,3-b]pyridin-5-yl)pyridin-3-yl)-N,N-dimethylmethanamine]
Emax [1]: 76% | EC50 [1]: 30 nM | EC50 [2]: 3.82 µM

CN(C)c1cncc(-c2ccc3[nH]nc(-c4nc5c(-c6cccs6)nccc5[nH]4)c3n2)c1 [Compound 343, N,N-Dimethyl-5-(3-(4-(thiophen-2-yl)-1H-imidazo[4,5-c]pyridin-2-yl)-1H-pyrazolo[4,3-b]pyridin-5-yl)pyridin-3-amine]
Emax [1]: 85% | EC50 [1]: 100 nM | EC50 [2]: 3.43 µM

O=C(Nc1cncc(-c2ccc3[nH]nc(-c4nc5c(-c6cccs6)nccc5[nH]4)c3n2)c1)C1CC1 [Compound 356, N-(5-(3-(4-(Thiophen-2-yl)-1H-imidazo[4,5-c]pyridin-2-yl)-1H-pyrazolo [4,3-b]pyridin-5-yl)pyridin-3-yl)cyclopropanecarboxamide]
EC50 [2]: > 10 µM | inhibition at 10 µM [2]: 0%

Oc1cncc(-c2ccc3[nH]nc(-c4nc5c(-c6cccc(F)c6)nccc5[nH]4)c3n2)c1 [Compound 517, 5-(3-(4-(3-Fluorophenyl)-1H-imidazo[4,5-c]pyridin-2-yl)-1H-pyrazolo[4,3-b]pyridin-5-yl)pyridin-3-ol]
Emax [1]: 57% | EC50 [1]: 7 nM | EC50 [2]: > 10 µM | inhibition at 10 µM [2]: 54.4%

COc1cncc(-c2ccc3[nH]nc(-c4nc5c(-c6cccc(F)c6)nccc5[nH]4)c3n2)c1 [Compound 516, 3-(4-(3-Fluorophenyl)-1H-imidazo[4,5-c]pyridin-2-yl)-5-(5-methoxypyridin-3-yl)-1H-pyrazolo[4,3-b]pyridine]
Emax [1]: 60% | EC50 [1]: 21 nM | EC50 [2]: > 10 µM | inhibition at 10 µM [2]: 25.1%

Fc1cccc(-c2nccc3[nH]c(-c4n[nH]c5ccc(-c6ccncc6)nc45)nc23)c1 [Compound 18, 3-(4-(3-Fluorophenyl)-1H-imidazo[4,5-c]pyridin-2-yl)-5-(pyridin-4-yl)-1H-pyrazolo[4,3-b]pyridine]
Emax [1]: 53% | EC50 [1]: 2 nM | EC50 [2]: > 10 µM | inhibition at 10 µM [2]: 4.6%

NC1CN(c2cncc(-c3ccc4[nH]nc(-c5nc6c(-c7cccc(F)c7)nccc6[nH]5)c4n3)n2)C1 [Compound 510, 1-(6-(3-(4-(3-Fluorophenyl)-1H-imidazo[4,5-c]pyridin-2-yl)-1H-pyrazolo [4,3-b]pyridin-5-yl)pyrazin-2-yl)azetidin-3-amine]
Emax [1]: 36% | EC50 [2]: > 10 µM | inhibition at 10 µM [2]: 9.4%

c1ccc(COc2cncc(-c3ccc4[nH]nc(-c5nc6c(-c7ccncc7)nccc6[nH]5)c4n3)c2)cc1 [Compound 582, 5-(5-(Benzyloxy)pyridin-3-yl)-3-(4-(pyridin-4-yl)-1H-imidazo[4,5-c]pyridin-2-yl)-1H-pyrazolo[4,3-b]pyridine]
EC50 [2]: > 10 µM | inhibition at 10 µM [2]: 8.3%

Cn1cc(-c2ccc3[nH]nc(-c4nc5c(-c6cccc(F)c6)nccc5[nH]4)c3n2)cn1 [Compound 508, 3-(4-(3-Fluorophenyl)-1H-imidazo[4,5-c]pyridin-2-yl)-5-(1-methyl-1H-pyrazol-4-yl)-1H-pyrazolo[4,3-b]pyridine]
Emax [1]: 43% | EC50 [2]: > 10 µM | inhibition at 10 µM [2]: 0%

CS(=O)(=O)NCc1cc(F)cc(-c2nccc3[nH]c(-c4n[nH]c5ccc(-c6cncnc6)nc45)nc23)c1 [Compound 503, N-(3-Fluoro-5-(2-(5-(pyrimidin-5-yl)-1H-pyrazolo[4,3-b]pyridin-3-yl)-1H-imidazo[4,5-c]pyridin-4-yl)benzyl)methanesulfonamide]
EC50 [2]: > 10 µM | inhibition at 10 µM [2]: 40.8%

CN(C)CCNc1cc(F)cc(-c2nccc3[nH]c(-c4n[nH]c5ccc(-c6ccccn6)nc45)nc23)c1 [Compound 476, N^1-(3-Fluoro-5-(2-(5-(pyridin-2-yl)-1H-pyrazolo[4,3-b]pyridin-3-yl)-1H-imidazo[4,5-c]pyridin-4-yl)phenyl)-N^2,N^2-dimethylethane-1,2-diamine]
EC50 [2]: > 10 µM | inhibition at 10 µM [2]: 35.8%

CS(=O)(=O)NCc1cc(F)cc(-c2nccc3[nH]c(-c4n[nH]c5ccc(-c6cncc(NC(=O)c7ccccc7)c6)nc45)nc23)c1 [Compound 487, N-(5-(3-(4-(3-Fluoro-5-(methylsulfonamidomethyl)phenyl)-1H-imidazo[4,5-c]pyridin-2-yl)-1H-pyrazolo[4,3-b]pyridin-5-yl)pyridin-3-yl)benzamide]
EC50 [2]: > 10 µM | inhibition at 10 µM [2]: 16.9%

CCCC(=O)Nc1cncc(-c2ccc3[nH]nc(-c4nc5c(-c6cc(F)cc(CNS(C)(=O)=O)c6)nccc5[nH]4)c3n2)c1 [Compound 493, N-(5-(3-(4-(3-Fluoro-5-(methylsulfonamidomethyl)phenyl)-1H-imidazo[4,5-c]pyridin-2-yl)-1H-pyrazolo[4,3-b]pyridin-5-yl)pyridin-3-yl)butyramide]
Emax [1]: 46% | EC50 [2]: > 10 µM | inhibition at 10 µM [2]: 20.3%

Cc1ccncc1-c1ccc2[nH]nc(-c3nc4c(-c5cc(F)cc(CNS(C)(=O)=O)c5)nccc4[nH]3)c2n1 [Compound 481, N-(3-Fluoro-5-(2-(5-(4-methylpyridin-3-yl)-1H-pyrazolo[4,3-b]pyridin-3-yl)-1H-imidazo[4,5-c]pyridin-4-yl)benzyl)methanesulfonamide]
Emax [1]: 30% | EC50 [2]: 9.81 µM

c1cc2[nH]c(-c3n[nH]c4ccc(-c5cncc(OCCN6CCCC6)c5)nc34)nc2c(N2CCCCC2)n1 [Compound 610, 3-(4-(Piperidin-1-yl)-1H-imidazo[4,5-c]pyridin-2-yl)-5-(5-(2-(pyrrolidin-1-yl)ethoxy)pyridin-3-yl)-1H-pyrazolo[4,3-b]pyridine]
EC50 [2]: > 10 µM | inhibition at 10 µM [2]: 34.9%

Fc1cccc(-c2nccc3[nH]c(-c4n[nH]c5ccc(-c6cncc(OCCN7CCCC7)c6)nc45)nc23)c1 [Compound 514, 3-(4-(3-Fluorophenyl)-1H-imidazo[4,5-c]pyridin-2-yl)-5-(5-(2-(pyrrolidin-1-yl)ethoxy)pyridin-3-yl)-1H-pyrazolo[4,3-b]pyridine]
EC50 [2]: > 10 µM | inhibition at 10 µM [2]: 47.8%

O=C(Nc1cncc(-c2ccc3[nH]nc(-c4nc5c(-c6cccc(F)c6)nccc5[nH]4)c3n2)c1)C1CC1 [Compound 20, N-(5-(3-(4-(3-Fluorophenyl)-1H-imidazo[4,5-c]pyridin-2-yl)-1H-pyrazolo [4,3-b]pyridin-5-yl)pyridin-3-yl)cyclopropanecarboxamide]
EC50 [2]: > 10 µM | inhibition at 10 µM [2]: 0%

O=C(CC1CCNCC1)Nc1cncc(-c2ccc3[nH]nc(-c4nc5c(-c6ccccn6)nccc5[nH]4)c3n2)c1 [Compound 593, 2-(Piperidin-4-yl)-N-(5-(3-(4-(pyri-2-yl)-1H-imidazo[4,5-c]pyridin-2-yl)-1H-pyrazolo[4,3-b]pyridin-5-yl)pyridin-3-yl)acetamide]
EC50 [2]: > 10 µM | inhibition at 10 µM [2]: 32.5%

Oc1cncc(-c2ccc3[nH]nc(-c4nc5c(-c6cccnc6)nccc5[nH]4)c3n2)c1 [Compound 565, 5-(3-(4-(Pyridin-3-yl)-1H-imidazo[4,5-c]pyridin-2-yl)-1H-pyrazolo[4,3-b]pyridin-5-yl)pyridin-3-ol]
EC50 [2]: 3.1 µM

c1cc(-c2nccc3[nH]c(-c4n[nH]c5ccc(-c6cnccn6)nc45)nc23)ccn1 [Compound 584, 5-(Pyrazin-2-yl)-3-(4-(pyridin-4-yl)-1H-imidazo[4,5-c]pyridin-2-yl)-1H-pyrazolo[4,3-b]pyridine]
EC50 [2]: > 10 µM | inhibition at 10 µM [2]: 32.2%

Cc1ccc(-c2nccc3[nH]c(-c4n[nH]c5ccc(-c6cncc(NC(=O)C7CCCC7)c6)nc45)nc23)s1 [Compound 414, N-(5-(3-(4-(5-Methylthiophen-2-yl)-1H-imidazo[4,5-c]pyridin-2-yl)-1H-pyrazolo[4,3-b]pyridin-5-yl)pyridin-3-yl)cyclopentanecarboxamide]
EC50 [2]: > 10 µM | inhibition at 10 µM [2]: 46.3%

c1cncc(-c2nccc3[nH]c(-c4n[nH]c5ccc(-c6cncc(OC7CCCCC7)c6)nc45)nc23)c1 [Compound 559, 5-(5-(Cyclohexyloxy)pyridin-3-yl)-3-(4-(pyridin-3-yl)-1H-imidazo[4,5-c]pyridin-2-yl)-1H-pyrazolo[4,3-b]pyridine]
EC50 [2]: > 10 µM | inhibition at 10 µM [2]: 42.7%

Cc1cn(-c2nccc3[nH]c(-c4n[nH]c5ccc(-c6cncc(OCCN(C)C)c6)nc45)nc23)cn1 [Compound 627, N,N-Dimethyl-2-((5-(3-(4-(4-methyl-1H-imidazol-1-yl)-1H-imidazo[4,5-c]pyridin-2-yl)-1H-pyrazolo[4,3-b]pyridin-5-yl)pyridin-3-yl)oxy)ethan-1-amine]
EC50 [2]: > 10 µM | inhibition at 10 µM [2]: 17.6%

c1cc(-c2nccc3[nH]c(-c4n[nH]c5ccc(-c6cncc(OC7CCNCC7)c6)nc45)nc23)ccn1 [Compound 576, 5-(5-(Piperidin-4-yloxy)pyridin-3-yl)-3-(4-(pyridin-4-yl)-1H-imidazo[4,5-c]pyridin-2-yl)-1H-pyrazolo[4,3-b]pyridine]
EC50 [2]: > 10 µM | inhibition at 10 µM [2]: 22.3%
